The values below come from patent publication US20230158022A1, “METHODS OF USING MYT1 INHIBITORS” (Repare Therapeutics Inc., priority 2020, published 2023).

Experiment [1] deals with RPE1-hTERT Cas9 TP53−/− parental (WT) and CCNE1-overexpressing clones. In words: Dose-response proliferation assay (IncuCyte confluency), RPE1-hTERT parental vs CCNE1-overexpressing clones. Type of experiment: cell-based. To be noted: dose titration, FIG. 3C.
Method: For dose-response proliferation assays using RPE1-hTERT and FT282-hTERT cell lines, cells were seeded in 96-well plates and dosed with serially diluted Myt1 inhibitor. Cells were imaged once per day using the IncuCyte S3 microscope and percent well confluency was calculated over time. Once cells reached four population doublings the experiment was ended and IC50 curves were plotted for the final time point. Percentage confluency was calculated relative to the cell confluency in the untreated wells.
Experiment [2] deals with T1, recombinant human Myt1 (full length PKMYT1) (Homo sapiens, UniProt Q99640).
T1 sequence (Q99640 1-499): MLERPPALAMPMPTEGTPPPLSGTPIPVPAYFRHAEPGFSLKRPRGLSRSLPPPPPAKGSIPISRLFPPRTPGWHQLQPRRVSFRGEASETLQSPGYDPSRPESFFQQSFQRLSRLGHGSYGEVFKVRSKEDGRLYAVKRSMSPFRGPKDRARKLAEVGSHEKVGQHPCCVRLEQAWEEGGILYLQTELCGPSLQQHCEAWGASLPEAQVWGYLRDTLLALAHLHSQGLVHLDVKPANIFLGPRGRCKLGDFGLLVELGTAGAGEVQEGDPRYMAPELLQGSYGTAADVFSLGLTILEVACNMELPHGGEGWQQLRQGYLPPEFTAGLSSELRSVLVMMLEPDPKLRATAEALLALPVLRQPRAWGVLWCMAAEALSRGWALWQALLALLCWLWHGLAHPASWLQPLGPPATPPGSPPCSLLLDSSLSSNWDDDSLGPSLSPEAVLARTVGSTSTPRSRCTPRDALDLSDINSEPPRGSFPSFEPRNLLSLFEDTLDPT
In words: Myt1 enzymatic assay (ADP-Glo kinase assay, ATP hydrolysis).
Method: Detection of Myt1 kinase activity utilized a recombinant human Myt1 kinase assay measuring the hydrolysis of ATP using a commercially available ADP-Glo Assay (ADP-Glo™ Kinase Assay from Promega, 10 000 assays, #V9102). […] After this, 5 μL of compounds (diluted in reaction buffer to 0.5% DMSO) was added to the microplate and the plate was spun briefly and incubated at 22° C. for 15 minutes. […] Luminescence was read using the Envision (250 ms integration). The IC50 and the % max inhibition were calculated for each inhibitor compound tested.

Turning to `Cc1ccc(O)c(C)c1-n1c(N)c(C(N)=O)c2cc(Cl)cnc21` (single isomer, unassigned) [Compound 133, S-2-amino-5-chloro-1-(3-hydroxy-2,6-dimethyl-phenyl)pyrrolo[2,3-b]pyridine-3-carboxamide], in experiment [1], the “sensitivity (cell viability) of CCNE1-overexpressing cells compared with corresponding WT cells” value is given as “more sensitive”.

For the compound `Cc1ccc(O)cc1-n1c(N)c(C(N)=O)c2nc(Cl)ccc21` [Compound 4], the IC50 (usually the point on the concentration scale where inhibition reaches its midpoint) in experiment [2] came to 922 nM.
